Target: Prothrombin/thrombin (Homo sapiens) (UniProt P00734)
Experiment: Inhibition of amidolytic activity of thrombin

Question: `N=C(N)c1ccc(CNC(=O)[C@@H]2CC[C@H]3CN(S(=O)(=O)CC(c4ccccc4)c4ccccc4)CC(=O)N32)cc1` [(6S,8aS)-2-(2,2-Diphenyl-ethanesulfonyl)-4-oxo-octahydro-pyrrolo[1,2-a]pyrazine-6-carboxylic acid 4-carbamimidoyl-benzylamide] was tested. Which Ki did it give?
Answer: 1 nM

Question: With `N=C(N)N1CCC(CNC(=O)[C@@H]2CC[C@H]3CN(S(=O)(=O)CC(c4ccccc4)c4ccccc4)CC(=O)N32)CC1` [(6S,8aS)-2-(2,2-Diphenyl-ethanesulfonyl)-4-oxo-octahydro-pyrrolo[1,2-a]pyrazine-6-carboxylic acid (1-carbamimidoyl-piperidin-4-ylmethyl)-amide] as the compound, how does the Ki read?
Answer: 8 nM

Question: `N[C@H]1CC[C@H](CNC(=O)[C@@H]2CC[C@H]3CN(S(=O)(=O)CC(c4ccccc4)c4ccccc4)CC(=O)N32)CC1` [(6S,8aS)-2-(2,2-Diphenyl-ethanesulfonyl)-4-oxo-octahydro-pyrrolo[1,2-a]pyrazine-6-carboxylic acid (4-amino-cyclohexylmethyl)-amide] was tested. Which Ki did it give?
Answer: 5 nM

Question: For `Cc1nc(N)ccc1CNC(=O)[C@@H]1CC[C@H]2CN(S(=O)(=O)CC(c3ccccc3)c3ccccc3)CC(=O)N21` [(6S,8aS)-2-(2,2-Diphenyl-ethanesulfonyl)-4-oxo-octahydro-pyrrolo[1,2-a]pyrazine-6-carboxylic acid (6-amino-2-methyl-pyridin-3-ylmethyl)-amide], which Ki is on record?
Answer: 48 nM

Question: For `Nc1ccc(CNC(=O)[C@@H]2CC[C@H]3CN(S(=O)(=O)CC(c4ccccc4)c4ccccc4)CC(=O)N32)cn1` [(6S,8aS)-2-(2,2-Diphenyl-ethanesulfonyl)-4-oxo-octahydro-pyrrolo[1,2-a]pyrazine-6-carboxylic acid (6-amino-pyridin-3-ylmethyl)-amide], which Ki is on record?
Answer: 35 nM

Question: For `N=C(NO)N1CCC(CNC(=O)[C@@H]2CC[C@H]3CN(S(=O)(=O)CC(c4ccccc4)c4ccccc4)CC(=O)N32)CC1` [(6S,8aS)-2-(2,2-Diphenyl-ethanesulfonyl)-4-oxo-octahydro-pyrrolo[1,2-a]pyrazine-6-carboxylic acid [1-(N-hydroxycarbamimidoyl)-piperidin-4-ylmethyl]-amide], which Ki is on record?
Answer: 2 nM

Question: How did the Ki turn out when `N=C(NO)N1CCC(CNC(=O)[C@@H]2CC[C@H]3CN(C(=O)CC(c4ccccc4)c4ccccc4)CC(=O)N32)CC1` [(6S,8aS)-2-(3,3-Diphenyl-propionyl)-4-oxo-octahydro-pyrrolo[1,2-a]pyrazine-6-carboxylic acid [1-(N-hydroxycarbamimidoyl)-piperidin-4-ylmethyl]-amide] was run?
Answer: 25 nM

Question: Which Ki does the source give for `Cc1cc(C(=N)N)ccc1CNC(=O)[C@@H]1CC[C@H]2CN(S(=O)(=O)C(c3ccccc3)c3ccccc3)CC(=O)N21` [(6S,8aS)-2-(Diphenyl-methanesulfonyl)-4-oxo-octahydro-pyrrolo[1,2-a]pyrazine-6-carboxylic acid 4-carbamimidoyl-2-methyl-benzylamide] here?
Answer: 2 nM

Question: Which Ki does the source give for `N=C(N)c1ccc(CNC(=O)[C@@H]2CC[C@H]3CN(S(=O)(=O)C(c4ccccc4)c4ccccc4)CC(=O)N32)cc1` [(6S,8aS)-2-(Diphenyl-methanesulfonyl)-4-oxo-octahydro-pyrrolo[1,2-a]pyrazine-6-carboxylic acid 4-carbamimidoyl-benzylamide] here?
Answer: 1 nM

Question: How did the Ki turn out when `N=C(N)N1CCC(CNC(=O)[C@@H]2CC[C@H]3CN(S(=O)(=O)C(c4ccccc4)c4ccccc4)CC(=O)N32)CC1` [(6S,8aS)-2-(Diphenyl-methanesulfonyl)-4-oxo-octahydro-pyrrolo[1,2-a]pyrazine-6-carboxylic acid (1-carbamimidoyl-piperidin-4-ylmethyl)-amide] was run?
Answer: 9 nM

Question: For `O=C(NCc1ccc2nc[nH]c2c1)[C@@H]1CC[C@H]2CN(S(=O)(=O)C(c3ccccc3)c3ccccc3)CC(=O)N21` [(6S,8aS)-2-(Diphenyl-methanesulfonyl)-4-oxo-octahydro-pyrrolo[1,2-a]pyrazine-6-carboxylic acid (1H-benzoimidazol-5-ylmethyl)-amide], which Ki is on record?
Answer: 75 nM

Question: For `N[C@H]1CC[C@H](CNC(=O)[C@@H]2CC[C@H]3CN(S(=O)(=O)C(c4ccccc4)c4ccccc4)CC(=O)N32)CC1` [(6S,8aS)-2-(Diphenyl-methanesulfonyl)-4-oxo-octahydro-pyrrolo[1,2-a]pyrazine-6-carboxylic acid (4-amino-cyclohexylmethyl)-amide], which Ki is on record?
Answer: 5 nM

Question: How did the Ki turn out when `N=C(N)[C@H]1CC[C@H](CNC(=O)[C@@H]2CC[C@H]3CN(S(=O)(=O)C(c4ccccc4)c4ccccc4)CC(=O)N32)CC1` [(6S,8aS)-2-(Diphenyl-methanesulfonyl)-4-oxo-octahydro-pyrrolo[1,2-a]pyrazine-6-carboxylic acid (4-carbamimidoyl-cyclohexylmethyl)-amide] was run?
Answer: 2 nM

Question: Which Ki does the source give for `N=C(N)c1ccc2c(c1)CCC2NC(=O)[C@@H]1CC[C@H]2CN(S(=O)(=O)C(c3ccccc3)c3ccccc3)CC(=O)N21` (stereo partly drawn) [(6S,8aS)-2-(Diphenyl-methanesulfonyl)-4-oxo-octahydro-pyrrolo[1,2-a]pyrazine-6-carboxylic acid (5-carbamimidoyl-indan-1-yl)-amide] here?
Answer: 75 nM

Question: With `Cc1nc(N)ccc1CNC(=O)[C@@H]1CC[C@H]2CN(S(=O)(=O)C(c3ccccc3)c3ccccc3)CC(=O)N21` [(6S,8aS)-2-(Diphenyl-methanesulfonyl)-4-oxo-octahydro-pyrrolo[1,2-a]pyrazine-6-carboxylic acid (6-amino-2-methyl-pyridin-3-ylmethyl)-amide] as the compound, how does the Ki read?
Answer: 10 nM

Question: With `N=C(NO)N1CCC(CNC(=O)[C@@H]2CC[C@H]3CN(S(=O)(=O)C(c4ccccc4)c4ccccc4)CC(=O)N32)CC1` [(6S,8aS)-2-(Diphenyl-methanesulfonyl)-4-oxo-octahydro-pyrrolo[1,2-a]pyrazine-6-carboxylic acid [1-(N-hydroxycarbamimidoyl)-piperidin-4-ylmethyl]-amide] as the compound, how does the Ki read?
Answer: 2 nM

Question: For `Nc1ncc(CCNC(=O)[C@@H]2CC[C@H]3CN(S(=O)(=O)C(c4ccccc4)c4ccccc4)CC(=O)N32)[nH]1` [(6S,8aS)-2-(Diphenyl-methanesulfonyl)-4-oxo-octahydro-pyrrolo[1,2-a]pyrazine-6-carboxylic acid [2-(2-amino-1H-imidazol-4-yl)-ethyl]-amide], which Ki is on record?
Answer: 135 nM

Question: How did the Ki turn out when `N=C(NO)N1CCC(CNC(=O)[C@@H]2CC[C@H]3CN(S(=O)(=O)CCc4ccccc4)CC(=O)N32)CC1` [(6S,8aS)-4-Oxo-2-(2-phenyl-ethanesulfonyl)-octahydro-pyrrolo[1,2-a]pyrazine-6-carboxylic acid [1-(N-hydroxycarbamimidoyl)-piperidin-4-ylmethyl]-amide] was run?
Answer: 14 nM

Question: `N=C(N)N1CCC(CNC(=O)[C@@H]2CC[C@H]3CN(C(=O)CCc4ccccc4)CC(=O)N32)CC1` [(6S,8aS)-4-Oxo-2-(3-phenyl-propionyl)-octahydro-pyrrolo[1,2-a]pyrazine-6-carboxylic acid (1-carbamimidoyl-piperidin-4-ylmethyl)-amide] was tested. Which Ki did it give?
Answer: 180 nM
